Laboratory results from ChEMBL document CHEMBL3779859, “Synergistic activity of a short lipidated antimicrobial peptide (lipoAMP) and colistin or tobramycin against Pseudomonas aeruginosa from cystic fibrosis patients” (Medchemcomm, 2016).
Values after ≈ are worked out from the molar mass of the structure shown. Active and inactive are the calls of the source. The calls are words filed in the database; no cut-off is given here. Peptide text beside a SMILES is read from it. * marks the point of attachment. Myristoyl = CCCCCCCCCCCCCC(=O)*; Lauroyl = CCCCCCCCCCCC(=O)*; Octanoyl = CCCCCCCC(=O)*

Tests used:
Pseudomonas aeruginosa [1] = test: Antibacterial activity against Pseudomonas aeruginosa KD491 clinical isolate after 16 to 20 hrs by microdilution assay; type: functional
Pseudomonas aeruginosa [2] = test: Antibacterial activity against Pseudomonas aeruginosa VW1633 clinical isolate after 16 to 20 hrs by microdilution assay; type: functional
Pseudomonas aeruginosa [3] = test: Antibacterial activity against Pseudomonas aeruginosa LES431 clinical isolate after 16 to 20 hrs by microdilution assay; type: functional
Pseudomonas aeruginosa [4] = test: Antibacterial activity against Pseudomonas aeruginosa PAO1 clinical isolate after 16 to 20 hrs by microdilution assay; type: functional
Pseudomonas aeruginosa [5] = test: Antibacterial activity against Pseudomonas aeruginosa VW1540 clinical isolate after 16 to 20 hrs by microdilution assay; type: functional
Pseudomonas aeruginosa [6] = test: Antibacterial activity against Pseudomonas aeruginosa kl 1.1 clinical isolate after 16 to 20 hrs by microdilution assay; type: functional
Pseudomonas aeruginosa [7] = test: Antibacterial activity against Pseudomonas aeruginosa LES400 clinical isolate after 16 to 20 hrs by microdilution assay; type: functional
Pseudomonas aeruginosa [8] = test: Antibacterial activity against Pseudomonas aeruginosa KD557 clinical isolate after 16 to 20 hrs by microdilution assay; type: functional
Pseudomonas aeruginosa [9] = test: Antibacterial activity against Pseudomonas aeruginosa Clone C clinical isolate after 16 to 20 hrs by microdilution assay; type: functional
Pseudomonas aeruginosa [10] = test: Antibacterial activity against Pseudomonas aeruginosa VW0247 clinical isolate after 16 to 20 hrs by microdilution assay; type: functional
Pseudomonas aeruginosa [11] = test: Antibacterial activity against Pseudomonas aeruginosa VW1485 clinical isolate after 16 to 20 hrs by microdilution assay; type: functional
Pseudomonas aeruginosa [12] = test: Antibacterial activity against Pseudomonas aeruginosa kl 3.2 clinical isolate after 16 to 20 hrs by microdilution assay; type: functional
Pseudomonas aeruginosa [13] = test: Antibacterial activity against Pseudomonas aeruginosa VW1538 clinical isolate after 16 to 20 hrs by microdilution assay; type: functional
Pseudomonas aeruginosa [14] = test: Antibacterial activity against Pseudomonas aeruginosa MIDLANDS clinical isolate after 16 to 20 hrs by microdilution assay; type: functional
Pseudomonas aeruginosa [15] = test: Antibacterial activity against Pseudomonas aeruginosa VW1501 clinical isolate after 16 to 20 hrs by microdilution assay; type: functional
Pseudomonas aeruginosa [16] = test: Antibacterial activity against Pseudomonas aeruginosa VW1471 clinical isolate after 16 to 20 hrs by microdilution assay; type: functional
Pseudomonas aeruginosa [17] = test: Antibacterial activity against Pseudomonas aeruginosa VW178 clinical isolate after 16 to 20 hrs by microdilution assay; type: functional
Pseudomonas aeruginosa [18] = test: Antibacterial activity against Pseudomonas aeruginosa LESB58 clinical isolate after 16 to 20 hrs by microdilution assay; type: functional
Pseudomonas aeruginosa [19] = test: Antibacterial activity against Pseudomonas aeruginosa D599 clinical isolate after 16 to 20 hrs by microdilution assay; type: functional
Pseudomonas aeruginosa [20] = test: Antibacterial activity against Pseudomonas aeruginosa VW313 clinical isolate after 16 to 20 hrs by microdilution assay; type: functional
Pseudomonas aeruginosa [21] = test: Antibacterial activity against Pseudomonas aeruginosa LESB58 clinical isolate assessed as delay in growth rate in exponential phase of bacterial growth curve at 1 ug/ml measured every 15 mins by microtiter plate reader method; type: functional, organism-based
Pseudomonas aeruginosa [22] = test: Antibacterial activity against Pseudomonas aeruginosa PAO1 clinical isolate assessed as delay in growth rate in exponential phase of bacterial growth curve at 0.25 ug/ml measured every 15 mins by microtiter plate reader method; type: functional, organism-based
Pseudomonas aeruginosa [23] = test: Antibacterial activity against Pseudomonas aeruginosa Clone C clinical isolate assessed as delay in growth rate in exponential phase of bacterial growth curve at 0.25 ug/ml measured every 15 mins by microtiter plate reader method; type: functional, organism-based
Pseudomonas aeruginosa [24] = test: Antibacterial activity against Pseudomonas aeruginosa KD491 clinical isolate assessed as delay in growth rate in exponential phase of bacterial growth curve at 1 ug/ml measured every 15 mins by microtiter plate reader method; type: functional, organism-based
Pseudomonas aeruginosa [25] = test: Antibacterial activity against Pseudomonas aeruginosa KD491 clinical isolate assessed as growth rate in exponential phase at 0.25 ug/ml measured every 15 mins by microtiter plate reader method; type: functional, organism-based
Pseudomonas aeruginosa [26] = test: Antibacterial activity against Pseudomonas aeruginosa PAO1 clinical isolate assessed as inhibition of biofilm formation at 2 ug/ml after 18 to 22 hrs by crystal violet staining-based polystyrene microtiter plate reader method; type: functional, organism-based
Pseudomonas aeruginosa [27] = test: Antibacterial activity against Pseudomonas aeruginosa LESB58 clinical isolate assessed as prolongation of lag phase in bacterial growth curve at 2 ug/ml measured every 15 mins by microtiter plate reader method; type: functional, organism-based
Pseudomonas aeruginosa [28] = test: Antibacterial activity against Pseudomonas aeruginosa LESB58 clinical isolate assessed as growth rate in exponential phase at 2 ug/ml measured every 15 mins by microtiter plate reader method; type: functional, organism-based
Pseudomonas aeruginosa [29] = test: Antibacterial activity against Pseudomonas aeruginosa Clone C clinical isolate assessed as inhibition of biofilm formation at 2 ug/ml after 18 to 22 hrs by crystal violet staining-based polystyrene microtiter plate reader method; type: functional, organism-based
Pseudomonas aeruginosa [30] = test: Antibacterial activity against Pseudomonas aeruginosa KD491 clinical isolate assessed as prolongation time of lag phase in bacterial growth curve at 0.25 ug/ml measured every 15 mins by microtiter plate reader method; type: functional, organism-based

Compound | MIC (Pseudomonas aeruginosa [1]) [µg/mL] | MIC (Pseudomonas aeruginosa [2]) [µg/mL] | MIC (Pseudomonas aeruginosa [3]) [µg/mL] | MIC (Pseudomonas aeruginosa [4]) [µg/mL] | MIC (Pseudomonas aeruginosa [5]) [µg/mL] | MIC (Pseudomonas aeruginosa [6]) [µg/mL] | MIC (Pseudomonas aeruginosa [7]) [µg/mL] | MIC (Pseudomonas aeruginosa [8]) [µg/mL] | MIC (Pseudomonas aeruginosa [9]) [µg/mL] | MIC (Pseudomonas aeruginosa [10]) [µg/mL] | MIC (Pseudomonas aeruginosa [11]) [µg/mL] | MIC (Pseudomonas aeruginosa [12]) [µg/mL] | MIC (Pseudomonas aeruginosa [13]) [µg/mL] | MIC (Pseudomonas aeruginosa [14]) [µg/mL] | MIC (Pseudomonas aeruginosa [15]) [µg/mL] | MIC (Pseudomonas aeruginosa [16]) [µg/mL] | MIC (Pseudomonas aeruginosa [17]) [µg/mL] | MIC (Pseudomonas aeruginosa [18]) [µg/mL] | MIC (Pseudomonas aeruginosa [19]) [µg/mL] | MIC (Pseudomonas aeruginosa [20]) [µg/mL] | also measured
CCCCCCCCCCCC(=O)N[C@@H](CCCNC(=N)N)C(=O)N[C@@H](Cc1c[nH]c2ccccc12)C(=O)N[C@@H](CCCNC(=N)N)C(=O)N[C@@H](Cc1c[nH]c2ccccc12)C(=O)N[C@@H](CCCNC(=N)N)C(=O)N[C@@H](Cc1c[nH]c2ccccc12)C(=O)N[C@@H](CCCCN)C(=O)O (Lauroyl-RWRWRWK-OH) | > 128 | > 128 | 64 (≈ 47.2 µM) | – | – | – | – | – | – | – | – | – | – | – | – | – | – | – | – | – | –
CCCCCCCCCCCCCC(=O)N[C@@H](CCCNC(=N)N)C(=O)N[C@@H](Cc1c[nH]c2ccccc12)C(=O)N[C@@H](CCCNC(=N)N)C(=O)N[C@@H](Cc1c[nH]c2ccccc12)C(=O)N[C@@H](CCCNC(=N)N)C(=O)N[C@@H](Cc1c[nH]c2ccccc12)C(=O)N[C@@H](CCCCN)C(=O)O (Myristoyl-RWRWRWK-OH) | > 128 | > 128 | > 128 | – | – | – | – | – | – | – | – | – | – | – | – | – | – | – | – | – | –
CCCCCCCC(=O)N[C@@H](CCCNC(=N)N)C(=O)N[C@@H](Cc1c[nH]c2ccccc12)C(=O)N[C@@H](CCCNC(=N)N)C(=O)N[C@@H](Cc1c[nH]c2ccccc12)C(=O)N[C@@H](CCCNC(=N)N)C(=O)N[C@@H](Cc1c[nH]c2ccccc12)C(=O)N[C@@H](CCCCN)C(=O)O (Octanoyl-RWRWRWK-OH) | 16 (≈ 12.3 µM) | 32 (≈ 24.6 µM) | 64 (≈ 49.2 µM) | – | – | – | – | – | – | – | – | – | – | – | – | – | – | – | – | – | –
CC(C)(O/N=C(\C(=O)N[C@@H]1C(=O)N2C(C(=O)[O-])=C(C[n+]3ccccc3)CS[C@H]12)c1csc(N)n1)C(=O)O [CEFTAZIDIME] | > 256 | > 256 | 256 (≈ 468 µM) | 1 (≈ 1.83 µM) | 16 (≈ 29.3 µM) | 2 (≈ 3.66 µM) | 32 (≈ 58.5 µM) | 2 (≈ 3.66 µM) | 2 (≈ 3.66 µM) | 16 (≈ 29.3 µM) | 8 (≈ 14.6 µM) | 2 (≈ 3.66 µM) | 8 (≈ 14.6 µM) | 64 (≈ 117 µM) | 4 (≈ 7.32 µM) | 128 (≈ 234 µM) | 2 (≈ 3.66 µM) | 256 (≈ 468 µM) | 1 (≈ 1.83 µM) | > 256 | –
C[C@@H](O)[C@H]1C(=O)N2C(C(=O)O)=C(S[C@@H]3CN[C@H](C(=O)N(C)C)C3)[C@H](C)[C@H]12 [MEROPENEM] | 16 (≈ 41.7 µM) | 1 (≈ 2.61 µM) | 8 (≈ 20.9 µM) | 2 (≈ 5.22 µM) | 1 (≈ 2.61 µM) | 4 (≈ 10.4 µM) | 2 (≈ 5.22 µM) | 1 (≈ 2.61 µM) | 2 (≈ 5.22 µM) | 0.25 (≈ 0.652 µM) | 0.25 (≈ 0.652 µM) | 4 (≈ 10.4 µM) | – | 16 (≈ 41.7 µM) | 0.25 (≈ 0.652 µM) | 32 (≈ 83.4 µM) | 2 (≈ 5.22 µM) | 2 (≈ 5.22 µM) | 0.5 (≈ 1.3 µM) | 16 (≈ 41.7 µM) | –
NC[C@H]1O[C@H](O[C@H]2[C@H](O)[C@@H](O[C@H]3O[C@H](CO)[C@@H](O)[C@H](N)[C@H]3O)[C@H](N)C[C@@H]2N)[C@H](N)C[C@@H]1O [TOBRAMYCIN] | 8 (≈ 17.1 µM) | 0.125 (≈ 0.267 µM) | 2 (≈ 4.28 µM) | 2 (≈ 4.28 µM) | 0.125 (≈ 0.267 µM) | 4 (≈ 8.56 µM) | 8 (≈ 17.1 µM) | 1 (≈ 2.14 µM) | 1 (≈ 2.14 µM) | 4 (≈ 8.56 µM) | 16 (≈ 34.2 µM) | 16 (≈ 34.2 µM) | 8 (≈ 17.1 µM) | 2 (≈ 4.28 µM) | 4 (≈ 8.56 µM) | 8 (≈ 17.1 µM) | 32 (≈ 68.4 µM) | 8 (≈ 17.1 µM) | 0.5 (≈ 1.07 µM) | 16 (≈ 34.2 µM) | Activity (Pseudomonas aeruginosa [21]): Active; Activity (Pseudomonas aeruginosa [22]): Active; Activity (Pseudomonas aeruginosa [23]): Active; Activity (Pseudomonas aeruginosa [24]): Active
COLISTIN | 2 | 2 | 2 | 4 | 4 | 4 | 4 | 8 | 4 | 2 | > 128 | 8 | 2 | 4 | 2 | 4 | 4 | 32 | 4 | 4 | Activity (Pseudomonas aeruginosa [25]): inactive; inhibition (Pseudomonas aeruginosa [26]): < 20%; Activity (Pseudomonas aeruginosa [27]): Active; Activity (Pseudomonas aeruginosa [28]): inactive; inhibition (Pseudomonas aeruginosa [29]): < 20%; TIME (Pseudomonas aeruginosa [30]): 4 h
